This passage reports IC50 and Activity results from ChEMBL document CHEMBL5500321, “Synthesis and clinical application of small-molecule drugs approved to treat prostatic cancer” (Eur J Med Chem, 2023).

The nature of assay [1]: Antiproliferative activity against human LNCaP/AR cells assessed as reduction in cell growth measured after 3 days by CellTiter-Glo assay. Format: functional, cell-based. The conditions noted are these: 72 h. (In general: Cellular ATP, detected with luciferase, serves as a proxy for viable cell number.)
In a further assay the test system is 4T1. Description: Antitumor activity against mouse 4T1 cells xenografted in BALB/c mouse model assessed as reduction in tumor growth at 100 microg/ml measured after 20 days relative to control. Format: functional. Also noted: scale not given: the % may be the effect or the level left. The following applies: dose 100 µg/ml; time 20 day.
The target in another assay is Tubulin. Description: Inhibition of microtubule (unknown origin) polymerization. Type of assay: protein-complex assay, Homo sapiens.
Another assay has as its system DU-145. Nature of the assay: Antimitotic activity against human DU-145 cells assessed as reduction in cell proliferation incubated for 72 hrs by alamar blue based fluorescence spectrophotometric analysis. The conditions noted are these: DU-145, 72 h. Type of assay: functional. (In general: Alamar Blue is a resazurin reagent that responds to reducing activity.)
A further assay has as its system T47D. Nature of the assay: Antiproliferative activity against human T47D cells assessed as reduction in cell growth incubated for 48 hrs by MTT assay. Type of assay: functional, cell-based. (Tetrazolium dyes change colour on reduction, which living cells bring about.)
In the next assay the test system is ZR-75-1. Nature of the assay: Antiproliferative activity against human ZR-75-1 cells assessed as reduction in cell growth measured after 5 days by Celltiter-Glo assay. The following applies: ZR-75-1, 120 h. Format: functional, cell-based.

Broadly, the IC50 is the midpoint of a concentration-inhibition curve. `CC(O)(CS(=O)(=O)c1ccc(F)cc1)C(=O)Nc1ccc(C#N)c(C(F)(F)F)c1` (stereo unspecified) [BICALUTAMIDE]: the IC50 in assay [1] came to 160 nM. `CO[C@H]1C(=O)[C@]2(C)[C@@H](OC)C[C@H]3OC[C@@]3(OC(C)=O)[C@H]2[C@H](OC(=O)c2ccccc2)[C@]2(O)C[C@H](OC(=O)[C@H](O)[C@@H](NC(=O)OC(C)(C)C)c3ccccc3)C(C)=C1C2(C)C` [CABAZITAXEL]: in the assay with 4T1, the Activity is 56.2%.

`CC(=O)O[C@@]12CO[C@@H]1C[C@H](O)[C@@]1(C)C(=O)[C@H](O)C3=C(C)[C@@H](OC(=O)[C@H](O)[C@@H](NC(=O)OC(C)(C)C)c4ccccc4)C[C@@](O)([C@@H](OC(=O)c4ccccc4)[C@H]21)C3(C)C` [DOCETAXEL ANHYDROUS] came in with an IC50 on Tubulin of 200 nM. In the case of `C[C@]12CC[C@@H]3c4ccc(OC(=O)N(CCCl)CCCl)cc4CC[C@H]3[C@@H]1CC[C@@H]2OP(=O)(O)O` [ESTRAMUSTINE PHOSPHATE SODIUM], in the assay on DU-145, the IC50 was 16 µM. Regarding `CC1(C)NC(=O)N(c2ccc([N+](=O)[O-])c(C(F)(F)F)c2)C1=O` [NILUTAMIDE], the IC50 was 87 nM with T47D and 75 nM in the assay with ZR-75-1.
